Active and inactive are the calls of the source. No cut-off for these calls is given here.
How the values were obtained:
[1] = Cytotoxicity against human A549-ACE2 cells assessed as cell viability at 1 uM incubated for 48 hrs by CellTiter-Glo2 assay relative to control; assay type: toxicity, cell-based; settings: a549-ace2, 48 h
[2] = Kinetic solubility of compound in PBS at pH 7.4 incubated for 24 hrs by HPLC analysis; assay type: physicochemical; settings: buffer, pH 7.4, 24 h
[3] = target: T1, Casein kinase II subunit alpha' (Homo sapiens, UniProt P19784); assay: Inhibition of NLuc-fused CSNK2A2 (unknown origin) expressed in HEK293 cells incubated for 2 hrs by NanoBRET assay; assay type: cell-based
Target sequence in this assay (P19784 whole entry, the tested form may be a part): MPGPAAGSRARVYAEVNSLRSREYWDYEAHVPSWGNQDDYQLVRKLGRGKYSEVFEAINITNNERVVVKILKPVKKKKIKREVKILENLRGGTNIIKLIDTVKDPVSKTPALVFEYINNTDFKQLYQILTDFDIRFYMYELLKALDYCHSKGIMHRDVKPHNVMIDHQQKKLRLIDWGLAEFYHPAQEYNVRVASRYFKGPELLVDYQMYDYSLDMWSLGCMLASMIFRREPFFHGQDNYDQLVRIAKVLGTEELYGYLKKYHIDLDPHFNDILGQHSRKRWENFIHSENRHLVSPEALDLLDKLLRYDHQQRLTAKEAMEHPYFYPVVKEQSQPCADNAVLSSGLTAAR

Murine hepatitis virus = assay: Antiviral activity against Murine hepatitis virus infected in mouse DBT cells preincubated with cells for 1 hrs followed by viral infection and measured after 10 hrs by luminometer; assay type: functional, organism-based; settings: Murine coronavirus
[4] = Cytotoxicity against human A549-ACE2 cells assessed as cell viability at 0.1 uM incubated for 48 hrs by CellTiter-Glo2 assay relative to control; assay type: toxicity, cell-based; settings: a549-ace2, 48 h
[5] = target: T1, Casein kinase II subunit alpha'; assay: Inhibition of CSNK2A2 (unknown origin) in presence of ATP by Eurofins radiometric enzymatic assay
Target sequence in this assay (P19784 whole entry, the tested form may be a part): as above

[6] = Cytotoxicity against human A549-ACE2 cells assessed as reduction in cell viability at >10 uM pretreated for 1 hrs followed by mock infection for 2 hrs and replacement with fresh medium containing compound and measured 48 hrs post mock-infection by LDH assay; assay type: toxicity, cell-based; settings: a549-ace2, 49 h
[7] = target: Death-associated protein kinase 2 (Homo sapiens, UniProt Q9UIK4); assay: Inhibition of human DAPK2 expressed in HEK293 cells incubated for 2 hrs by NanoBRET assay; assay type: cell-based
Sequence of Death-associated protein kinase 2 (Q9UIK4 whole entry): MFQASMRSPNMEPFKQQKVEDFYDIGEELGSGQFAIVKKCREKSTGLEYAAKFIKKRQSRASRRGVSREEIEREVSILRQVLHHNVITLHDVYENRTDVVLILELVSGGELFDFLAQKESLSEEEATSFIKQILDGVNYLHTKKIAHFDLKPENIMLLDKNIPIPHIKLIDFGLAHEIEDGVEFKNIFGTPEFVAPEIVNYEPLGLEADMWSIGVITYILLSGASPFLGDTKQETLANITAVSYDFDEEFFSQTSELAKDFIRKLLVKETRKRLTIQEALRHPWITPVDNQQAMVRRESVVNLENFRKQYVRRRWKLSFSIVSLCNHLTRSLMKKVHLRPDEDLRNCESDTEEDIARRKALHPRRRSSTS

[8] = target: Dual specificity protein kinase CLK4 (Homo sapiens, UniProt Q9HAZ1); assay: Inhibition of human CLK4 expressed in HEK293 cells incubated for 2 hrs by NanoBRET assay; assay type: cell-based
Sequence of Dual specificity protein kinase CLK4 (Q9HAZ1 whole entry): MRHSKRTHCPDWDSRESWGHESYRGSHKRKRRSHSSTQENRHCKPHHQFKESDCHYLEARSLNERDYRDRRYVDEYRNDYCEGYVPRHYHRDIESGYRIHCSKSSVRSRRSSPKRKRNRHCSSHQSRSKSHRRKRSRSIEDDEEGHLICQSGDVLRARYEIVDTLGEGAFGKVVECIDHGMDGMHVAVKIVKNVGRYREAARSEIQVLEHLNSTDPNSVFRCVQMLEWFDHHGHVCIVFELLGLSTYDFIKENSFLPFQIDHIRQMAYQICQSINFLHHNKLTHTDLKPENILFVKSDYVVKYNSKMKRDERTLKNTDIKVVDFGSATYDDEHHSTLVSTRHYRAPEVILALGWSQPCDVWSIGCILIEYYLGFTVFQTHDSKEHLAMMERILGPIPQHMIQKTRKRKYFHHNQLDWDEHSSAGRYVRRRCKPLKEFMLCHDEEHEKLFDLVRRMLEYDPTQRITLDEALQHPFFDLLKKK

[9] = target: T1, Casein kinase II subunit alpha'; assay: Inhibition of human CSNK2A2 expressed in HEK293 cells incubated for 2 hrs by NanoBRET assay; assay type: cell-based
Target sequence in this assay (P19784 whole entry, the tested form may be a part): as the sequence (P19784 whole entry, the tested form may be a part) above

[10] = Intrinsic clearance in male CD-1 mouse at 3 mg/kg, iv measured after 5 hrs by LC-MS/MS analysis; assay type: ADME, organism-based; settings: in vivo
[11] = target: Phosphorylase b kinase gamma catalytic chain, skeletal muscle/heart isoform (Homo sapiens, UniProt Q16816); assay: Inhibition of human PHKG1 expressed in HEK293 cells incubated for 2 hrs by NanoBRET assay; assay type: cell-based
Sequence of Phosphorylase b kinase gamma catalytic chain, skeletal muscle/heart isoform (Q16816 whole entry, the tested form may be a part, canonical isoform): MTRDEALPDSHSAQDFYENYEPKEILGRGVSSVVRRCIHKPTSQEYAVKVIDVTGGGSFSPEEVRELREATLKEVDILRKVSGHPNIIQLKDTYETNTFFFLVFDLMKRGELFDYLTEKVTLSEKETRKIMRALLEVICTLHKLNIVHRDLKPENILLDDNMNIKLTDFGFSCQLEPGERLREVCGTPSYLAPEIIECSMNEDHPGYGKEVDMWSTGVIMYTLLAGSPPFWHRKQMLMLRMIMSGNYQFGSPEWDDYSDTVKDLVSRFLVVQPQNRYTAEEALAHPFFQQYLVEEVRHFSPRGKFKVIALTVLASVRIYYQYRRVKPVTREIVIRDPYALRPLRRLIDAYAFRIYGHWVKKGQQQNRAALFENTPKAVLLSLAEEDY

[12] = target: T1, Casein kinase II subunit alpha'; assay: Inhibition of NLuc-fused CSNK2A2 (unknown origin) expressed in digitonin-permeabilized HEK293 cells incubated for 25 mins by NanoBRET assay; assay type: cell-based
[13] = target: Cyclin-dependent kinase 7 (Homo sapiens, UniProt P50613); assay: Inhibition of human CDK7 expressed in HEK293 cells incubated for 2 hrs by NanoBRET assay; assay type: cell-based
Sequence of Cyclin-dependent kinase 7 (P50613 whole entry): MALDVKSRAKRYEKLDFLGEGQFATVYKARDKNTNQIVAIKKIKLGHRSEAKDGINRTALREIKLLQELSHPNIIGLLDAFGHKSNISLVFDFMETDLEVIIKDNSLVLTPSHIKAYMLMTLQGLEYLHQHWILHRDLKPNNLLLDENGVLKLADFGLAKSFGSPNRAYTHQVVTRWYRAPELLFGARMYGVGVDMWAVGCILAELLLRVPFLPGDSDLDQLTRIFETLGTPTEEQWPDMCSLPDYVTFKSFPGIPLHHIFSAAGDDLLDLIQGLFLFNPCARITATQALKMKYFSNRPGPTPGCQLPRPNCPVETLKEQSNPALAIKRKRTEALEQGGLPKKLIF

[14] = target: Casein kinase 2 (Homo sapiens) (UniProt P67870+P68400+P19784+Q8NEV1); assay: Inhibition of CSNK2 downstream signaling in human A549-ACE2 cells assessed as reduction in EIF2S2 phosphorylation at 1 to 5 uM measured after 24 hrs by Western blot analysis; assay type: cell-based; settings: dose 1-5 µM
[15] = Apparent permeability from apical to basolateral side in MDCK-MDR1 cells at 1 uM incubated for 2 hrs by fluorescence plate reader analysis; assay type: ADME, cell-based, Canis lupus familiaris; settings: dog, mdck-mdr1, 2 h
[16] = target: Dual specificity tyrosine-phosphorylation-regulated kinase 1A (Homo sapiens) (UniProt Q13627); assay: Binding affinity to human DYRK1A expressed in HEK293 cells assessed as target occupancy upto 3 uM incubated for 2 hrs by NanoBRET assay; assay type: cell-based
[17] = target: T2, Homeodomain-interacting protein kinase 4 (Homo sapiens, UniProt Q8NE63); assay: Inhibition of human HIPK4 expressed in HEK293 cells incubated for 2 hrs by NanoBRET assay; assay type: cell-based
T2 sequence (Q8NE63 whole entry): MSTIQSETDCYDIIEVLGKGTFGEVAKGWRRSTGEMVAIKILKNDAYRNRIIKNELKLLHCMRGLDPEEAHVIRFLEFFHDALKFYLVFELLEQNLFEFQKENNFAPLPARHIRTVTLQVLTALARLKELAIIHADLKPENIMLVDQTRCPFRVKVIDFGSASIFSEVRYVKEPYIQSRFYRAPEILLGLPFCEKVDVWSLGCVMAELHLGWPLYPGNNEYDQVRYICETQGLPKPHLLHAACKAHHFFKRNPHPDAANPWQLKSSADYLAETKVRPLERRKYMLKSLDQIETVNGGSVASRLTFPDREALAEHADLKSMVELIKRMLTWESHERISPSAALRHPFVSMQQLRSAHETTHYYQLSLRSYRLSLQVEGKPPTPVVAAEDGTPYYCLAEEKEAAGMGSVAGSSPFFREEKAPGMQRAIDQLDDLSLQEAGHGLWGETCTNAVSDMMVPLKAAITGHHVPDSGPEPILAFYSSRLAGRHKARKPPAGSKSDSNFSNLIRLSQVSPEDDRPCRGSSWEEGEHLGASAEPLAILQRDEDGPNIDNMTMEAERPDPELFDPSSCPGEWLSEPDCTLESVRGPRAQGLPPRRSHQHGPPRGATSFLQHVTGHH

[18] = target: Dual specificity protein kinase CLK1 (Homo sapiens, UniProt P49759); assay: Inhibition of human CLK1 expressed in HEK293 cells incubated for 2 hrs by NanoBRET assay; assay type: cell-based
Sequence of Dual specificity protein kinase CLK1 (P49759 whole entry): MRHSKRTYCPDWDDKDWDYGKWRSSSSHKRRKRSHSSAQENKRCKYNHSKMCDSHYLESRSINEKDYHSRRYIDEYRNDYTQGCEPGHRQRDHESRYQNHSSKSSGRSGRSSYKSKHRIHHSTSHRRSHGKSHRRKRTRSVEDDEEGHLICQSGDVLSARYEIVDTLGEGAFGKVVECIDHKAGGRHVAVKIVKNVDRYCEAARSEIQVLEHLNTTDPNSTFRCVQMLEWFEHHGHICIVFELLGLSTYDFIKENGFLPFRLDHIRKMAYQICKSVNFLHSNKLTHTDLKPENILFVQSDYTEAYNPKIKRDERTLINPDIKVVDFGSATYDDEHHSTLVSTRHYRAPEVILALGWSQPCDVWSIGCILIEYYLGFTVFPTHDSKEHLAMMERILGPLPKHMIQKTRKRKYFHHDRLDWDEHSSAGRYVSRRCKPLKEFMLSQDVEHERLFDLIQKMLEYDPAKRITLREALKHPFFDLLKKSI

[19] = Apparent permeability from basolateral to apical side in MDCK-MDR1 cells at 1 uM incubated for 2 hrs by fluorescence plate reader analysis; assay type: ADME, cell-based, Canis lupus familiaris; settings: dog, mdck-mdr1, 2 h
[20] = target: Dual specificity protein kinase CLK2 (Homo sapiens, UniProt P49760); assay: Inhibition of human CLK2 expressed in HEK293 cells incubated for 2 hrs by NanoBRET assay; assay type: cell-based
Sequence of Dual specificity protein kinase CLK2 (P49760 whole entry): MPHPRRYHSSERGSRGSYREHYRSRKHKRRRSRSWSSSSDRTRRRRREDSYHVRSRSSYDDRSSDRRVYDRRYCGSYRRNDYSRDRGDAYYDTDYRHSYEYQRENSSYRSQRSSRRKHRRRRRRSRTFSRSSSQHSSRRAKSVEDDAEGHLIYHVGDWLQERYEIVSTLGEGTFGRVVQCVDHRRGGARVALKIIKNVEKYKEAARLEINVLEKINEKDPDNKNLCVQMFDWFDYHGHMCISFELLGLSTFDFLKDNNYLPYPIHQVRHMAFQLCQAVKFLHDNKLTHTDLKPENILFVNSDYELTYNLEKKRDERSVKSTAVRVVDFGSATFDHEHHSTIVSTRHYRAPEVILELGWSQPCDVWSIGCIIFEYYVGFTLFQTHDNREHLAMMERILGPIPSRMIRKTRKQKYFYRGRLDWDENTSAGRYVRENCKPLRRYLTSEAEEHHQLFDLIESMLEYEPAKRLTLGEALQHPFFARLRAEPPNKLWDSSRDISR

[21] = target: Casein kinase II subunit alpha (Homo sapiens, UniProt P68400); assay: Inhibition of CSNK2A1 (unknown origin) in presence of ATP by Eurofins radiometric enzymatic assay
Sequence of Casein kinase II subunit alpha (P68400 whole entry): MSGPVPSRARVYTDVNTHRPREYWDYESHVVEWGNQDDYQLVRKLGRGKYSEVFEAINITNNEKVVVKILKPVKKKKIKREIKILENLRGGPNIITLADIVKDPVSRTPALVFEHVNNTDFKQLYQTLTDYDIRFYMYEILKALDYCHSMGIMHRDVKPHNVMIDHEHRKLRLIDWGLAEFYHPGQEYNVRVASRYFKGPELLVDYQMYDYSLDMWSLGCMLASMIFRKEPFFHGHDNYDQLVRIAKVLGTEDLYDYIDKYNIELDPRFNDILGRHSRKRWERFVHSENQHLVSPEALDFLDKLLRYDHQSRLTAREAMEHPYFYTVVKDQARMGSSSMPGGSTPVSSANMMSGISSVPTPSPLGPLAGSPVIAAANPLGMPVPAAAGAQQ

Structure (SMILES)	Activity [1]	Kinetic_solubility [2]	IC50 [3]	IC50 (Murine hepatitis virus)	Activity [4]	other results
CCN(CC)CCN(C)c1ccc(Nc2cc(NC3CC3)n3ncc(C#N)c3n2)cc1-n1cnnc1	100%	60 µg/mL	100 nM	794 nM	98%	–
COCCNc1ccc(Nc2cc(NC3CC3)n3ncc(C#N)c3n2)cc1-n1cnnc1	99%	0.8 µg/mL	126 nM	316 nM	99%	–
CCN(CCN)c1ccc(Nc2cc(NC3CC3)n3ncc(C#N)c3n2)cc1-n1cnnc1	–	–	316 nM	200 nM	–	IC50 [5]: 0.66 nM; Activity [6]: Non-Toxic; IC50 [7]: 2510 nM; IC50 [8]: 2510 nM; IC50 [9]: 316 nM; CL [10]: 86 mL/min/kg; IC50 [11]: 6310 nM; IC50 [12]: 80 nM; inhibition [12]: Dose-Dependent Effect; IC50 [13]: 15800 nM; inhibition [14]: Active; Papp [15]: 0.16 10^-6 cm/s; Activity [16]: inactive; IC50 [17]: 25100 nM; IC50 [18]: 5010 nM; Papp [19]: 0.36 10^-6 cm/s; IC50 [20]: 3160 nM; IC50 [21]: 1.7 nM
CN(CCO)c1ccc(Nc2cc(NC3CC3)n3ncc(C#N)c3n2)cc1-n1cnnc1	97%	38 µg/mL	126 nM	200 nM	95%	–
CN(CCN)c1ccc(Nc2cc(NC3CC3)n3ncc(C#N)c3n2)cc1-n1cnnc1	87%	45 µg/mL	251 nM	398 nM	99%	–
